Measurements taken from patent US20220031611A1, “IMMUNOSUPPRESSIVE DOSAGE FORMS AND METHODS OF USE” (Gemini Laboratories, LLC, priority 2018, published 2022).

Assay: Storage stability: % assay of Tacrolimus
Format: physicochemical
Conditions: active pharmaceutical ingredient (API) lot, comparator
Text: The pharmaceutical formulations disclosed herein may comprise oral formulations having improved solubility and/or stability profiles. The formulations may be suitable for oral delivery, for example via a solution or suspension. The formulations orally administrated via a solution or suspension can be bioequivalent to formulations administered via oral capsules, or any other administration route. The formulations disclosed herein are stable under standard storage conditions or accelerated conditions. The total amount of impurities in the formulations may be not more than about 0.1 to 3%, and standard storage conditions may comprise a temperature of about 20 to 25° C. (i.e., room temperature) and no more than about 40% Relative Humidity (RH). In one embodiment, the formulations disclosed herein are stable at room temperature for 18 to 24 months or longer. The stability of a formulation according to the present disclosure can be determined, for example, by measuring the physical state of the formulation, including the viscosity and presence of any discoloration and chemical stability by measuring assay of API & related compound. Tables 4 and 5 present stability characteristics of the compositions provided in Examples 1 & 2 above. The following Tables 8-9 show purity of a Tacrolimus oral solution of 1 mg/ml as a percent assay, based on the batch descriptions in Table 7. […]

- % Assay: 97.1%
Compound: C=CC[C@@H]1/C=C(\C)C[C@H](C)C[C@H](OC)[C@H]2O[C@@](O)(C(=O)C(=O)N3CCCC[C@H]3C(=O)O[C@H](/C(C)=C/[C@@H]3CC[C@@H](O)[C@H](OC)C3)[C@H](C)[C@@H](O)CC1=O)[C@H](C)C[C@@H]2OC [API_Lot # DMP (079)-38, Tacrolimus]
